Measurements as given in the supplement of paper PMC10307832.

Key:
Experiment in all cases: relative viability (nuclei count vs DMSO), 5 days (fraction); higher = more cells survive
[1] = compound: NCC(=O)Nc1ccc(-n2nc(C(F)(F)F)cc2-c2ccc3c(ccc4ccccc43)c2)cc1 + CC(=O)c1c(C)c2cnc(Nc3ccc(N4CCNCC4)cn3)nc2n(C2CCCC2)c1=O [Palbociclib] (partner 0.5 µM)
In short: (§1)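 Lung cancer cell lines were seeded in 1536-well plates and dosed by pin tool the next day, with either a single drug or a fixed anchor-drug dose combined with five library-drug doses (not always all listed) spaced in √10 steps. Five days later, one step fixed the cells and stained their nuclei (final 0.05% Triton X-100, 1% formaldehyde, 1 ug/ml Hoechst), and nuclei were counted on 4× images. Relative viability is the nuclei count in treated wells divided by the count in vehicle wells, and each value is the median of duplicate plates.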

[2] = compound: NCC(=O)Nc1ccc(-n2nc(C(F)(F)F)cc2-c2ccc3c(ccc4ccccc43)c2)cc1 + Cc1cc(Nc2cc(N3CCN(C)CC3)nc(Sc3ccc(NC(=O)C4CC4)cc3)n2)n[nH]1 [Tozasertib] (partner 0.1 µM)
In short: as §1

[3] = compound: NCC(=O)Nc1ccc(-n2nc(C(F)(F)F)cc2-c2ccc3c(ccc4ccccc43)c2)cc1 + CC1(C)CCC(c2ccc(Cl)cc2)=C(CN2CCN(c3ccc(C(=O)NS(=O)(=O)c4ccc(N[C@H](CCN5CCOCC5)CSc5ccccc5)c(S(=O)(=O)C(F)(F)F)c4)cc3)CC2)C1 [Navitoclax] (partner 0.5 µM)
In short: as §1

[4] = compound: C1CSC2=C(C(=O)N1)SC3=C2C=C(C=C3)O [kb NB 142-70] + CC1(C)CCC(c2ccc(Cl)cc2)=C(CN2CCN(c3ccc(C(=O)NS(=O)(=O)c4ccc(N[C@H](CCN5CCOCC5)CSc5ccccc5)c(S(=O)(=O)C(F)(F)F)c4)cc3)CC2)C1 [Navitoclax] (partner 0.5 µM)
In short: as §1

UMC-11 was tested, and the relative viability ([1]; first compound 0.02 µM) was 0.301, the relative viability ([1]; first compound 0.06325 µM) was 0.305 and the relative viability ([1]; first compound 0.2 µM) was 0.297. The relative viability ([1]; first compound 0.6325 µM) was 0.325, the relative viability ([1]; first compound 2 µM) was 0.344 and the relative viability ([2]; first compound 0.02 µM) was 0.191. It also gave a relative viability ([2]; first compound 0.06325 µM) of 0.21, a relative viability ([2]; first compound 0.2 µM) of 0.218 and a relative viability ([2]; first compound 0.6325 µM) of 0.19. For the same cell line, the relative viability ([2]; first compound 2 µM) was 0.183, the relative viability ([3]; first compound 0.02 µM) was 0.303 and the relative viability ([3]; first compound 0.06325 µM) was 0.349. It also gave a relative viability ([3]; first compound 0.2 µM) of 0.35, a relative viability ([3]; first compound 0.6325 µM) of 0.304 and a relative viability ([3]; first compound 2 µM) of 0.328. For the same cell line, the relative viability ([4]; first compound 0.1 µM) was 0.293, the relative viability ([4]; first compound 1 µM) was 0.267 and the relative viability ([4]; first compound 3.162 µM) was 0.184.
